“And” between values parts separate entries of the source, which are not always exact repeats. Equal values may be shown once.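 Exposure lasted 48 hours, with cells grown in 96-well plates and compounds tested at five concentrations. GI50 = concentration required for 50% inhibition of growth. The concentration for full growth arrest is given as TGI.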
Tests used:
Test in all cases: NCI tumour cell line growth inhibition, 48 h
786-0 renal = tested on: 786-0 renal
A498 renal = tested on: A498 renal
A549 NSCLC = tested on: A549 NSCLC
ACHN renal = tested on: ACHN renal
BT-549 breast = tested on: BT-549 breast
CAKI-1 renal = tested on: CAKI-1 renal
CCRF-CEM leukemia = tested on: CCRF-CEM leukemia
COLO 205 colon = tested on: COLO 205 colon
DU-145 prostate = tested on: DU-145 prostate
EKVX NSCLC = tested on: EKVX NSCLC
HCC-2998 colon = tested on: HCC-2998 colon
HCT-116 colon = tested on: HCT-116 colon
HCT-15 colon = tested on: HCT-15 colon
HL-60(TB) leukemia = tested on: HL-60(TB) leukemia
HOP-62 NSCLC = tested on: HOP-62 NSCLC
HOP-92 NSCLC = tested on: HOP-92 NSCLC
HS 578T breast = tested on: HS 578T breast
HT29 colon = tested on: HT29 colon
IGROV1 ovarian = tested on: IGROV1 ovarian
K-562 leukemia = tested on: K-562 leukemia
KM12 colon = tested on: KM12 colon
LOX IMVI melanoma = tested on: LOX IMVI melanoma
M14 melanoma = tested on: M14 melanoma
MALME-3M melanoma = tested on: MALME-3M melanoma
MCF7 breast = tested on: MCF7 breast
MDA-MB-231 breast = tested on: MDA-MB-231 breast
MDA-MB-435 = tested on: MDA-MB-435
MOLT-4 leukemia = tested on: MOLT-4 leukemia
NCI-H226 lung = tested on: NCI-H226 lung
NCI-H23 lung = tested on: NCI-H23 lung
NCI-H460 lung = tested on: NCI-H460 lung
NCI-H522 lung = tested on: NCI-H522 lung
NCI/ADR-RES ovarian = tested on: NCI/ADR-RES ovarian
OVCAR-3 ovarian = tested on: OVCAR-3 ovarian
OVCAR-4 ovarian = tested on: OVCAR-4 ovarian
OVCAR-5 ovarian = tested on: OVCAR-5 ovarian
OVCAR-8 ovarian = tested on: OVCAR-8 ovarian
PC-3 prostate = tested on: PC-3 prostate
RPMI-8226 leukemia = tested on: RPMI-8226 leukemia
RXF 393 renal = tested on: RXF 393 renal
SF-268 CNS = tested on: SF-268 CNS
SF-295 CNS = tested on: SF-295 CNS
SF-539 CNS = tested on: SF-539 CNS
SK-MEL-2 melanoma = tested on: SK-MEL-2 melanoma
SK-MEL-28 melanoma = tested on: SK-MEL-28 melanoma
SK-MEL-5 melanoma = tested on: SK-MEL-5 melanoma
SK-OV-3 ovarian = tested on: SK-OV-3 ovarian
SN12C renal = tested on: SN12C renal
SNB-19 CNS = tested on: SNB-19 CNS
SNB-75 CNS = tested on: SNB-75 CNS
SR leukemia = tested on: SR leukemia
SW-620 colon = tested on: SW-620 colon
T-47D breast = tested on: T-47D breast
TK-10 renal = tested on: TK-10 renal
U251 CNS = tested on: U251 CNS
UACC-257 melanoma = tested on: UACC-257 melanoma
UACC-62 melanoma = tested on: UACC-62 melanoma
UO-31 renal = tested on: UO-31 renal

## C[C@@H]1C[C@H]2C(=O)OCC(NC(=O)[C@H](Cc3cc(F)cc(F)c3)NC(=O)Nc3ccc(Cl)cc3F)C(=O)N3CCC[C@H]3C(=O)N3CCCC[C@H]3C(=O)N[C@@H](C)C(=O)N2C1 (some centres undefined)
786-0 renal
  GI50: 3.06 µM and 1.18 µM
  TGI: 50 µM and 55.5 µM
A498 renal
  GI50: 2.47 µM
  TGI: 28.5 µM and 19.2 µM
A549 NSCLC
  GI50: 1.96 µM and 0.916 µM
  TGI: 50 µM and > 100 µM
ACHN renal
  GI50: 2.22 µM and 1.14 µM
  TGI: 50 µM and > 100 µM
BT-549 breast
  GI50: 1.91 µM and 0.499 µM
  TGI: 8.74 µM and 6.72 µM
CAKI-1 renal
  GI50: 1.9 µM and 0.4 µM
  TGI: 50 µM and 15.6 µM
CCRF-CEM leukemia
  GI50: 2.18 µM and 0.51 µM
  TGI: 47.2 µM and 19 µM
COLO 205 colon
  GI50: 1.27 µM and 0.402 µM
  TGI: 3.64 µM and 1.39 µM
DU-145 prostate
  GI50: 2.1 µM and 0.511 µM
  TGI: 50 µM and > 100 µM
EKVX NSCLC
  GI50: 2.16 µM and 0.643 µM
  TGI: 50 µM and 97.1 µM
HCC-2998 colon
  GI50: 2.74 µM and 0.619 µM
  TGI: 11.2 µM and 4.46 µM
HCT-116 colon
  GI50: 1.96 µM and 0.355 µM
  TGI: 7.37 µM and 2.04 µM
HCT-15 colon
  GI50: 1.96 µM and 0.468 µM
  TGI: 37.3 µM and 10.4 µM
HL-60(TB) leukemia
  GI50: 1.73 µM and 0.287 µM
  TGI: 8.21 µM and 1.53 µM
HOP-62 NSCLC
  GI50: 2.03 µM and 1.07 µM
  TGI: 50 µM and 35.8 µM
HOP-92 NSCLC
  GI50: 1.41 µM and 0.399 µM
  TGI: 8.43 µM and 7.29 µM
HS 578T breast
  GI50: 1.74 µM and 0.603 µM
  TGI: 50 µM and 18.6 µM
HT29 colon
  GI50: 1.91 µM and 0.595 µM
  TGI: 8.68 µM and 3.37 µM
IGROV1 ovarian
  GI50: 4.56 µM and 1.6 µM
  TGI: 50 µM and 81.6 µM
K-562 leukemia
  GI50: 0.399 µM
  TGI: > 100 µM
KM12 colon
  GI50: 3.33 µM and 2.5 µM
  TGI: 27.1 µM and 19.7 µM
LOX IMVI melanoma
  GI50: 0.898 µM and 0.776 µM
M14 melanoma
  GI50: 2.05 µM and 0.448 µM
  TGI: 9.05 µM and 10.3 µM
MALME-3M melanoma
  GI50: 3.1 µM and 1.64 µM
  TGI: 16.7 µM and 16.3 µM
MCF7 breast
  GI50: 1.89 µM and 0.39 µM
  TGI: 50 µM and 20 µM
MDA-MB-231 breast
  GI50: 1.65 µM and 0.484 µM
  TGI: 5.9 µM and 4.24 µM
MDA-MB-435
  GI50: 2.25 µM and 0.495 µM
  TGI: 13.2 µM and 12.3 µM
MOLT-4 leukemia
  GI50: 0.437 µM and 0.793 µM
  TGI: 5.12 µM and 17.9 µM
NCI-H226 lung
  GI50: 2.08 µM and 0.312 µM
NCI-H23 lung
  GI50: 2.79 µM
  TGI: 50 µM
NCI-H460 lung
  GI50: 1.88 µM and 0.516 µM
  TGI: 50 µM and 17.3 µM
NCI-H522 lung
  GI50: 1.44 µM and 0.38 µM
  TGI: 8.78 µM and 5.8 µM
NCI/ADR-RES ovarian
  GI50: 7.72 µM and 2.87 µM
  TGI: 50 µM and > 100 µM
OVCAR-3 ovarian
  GI50: 2.23 µM and 0.55 µM
  TGI: 50 µM and 11.4 µM
OVCAR-4 ovarian
  GI50: 1.66 µM and 0.482 µM
  TGI: 50 µM and > 100 µM
OVCAR-5 ovarian
  GI50: 2.34 µM and 0.751 µM
  TGI: 10.9 µM and 16.5 µM
OVCAR-8 ovarian
  GI50: 1.79 µM and 0.408 µM
  TGI: 50 µM and > 100 µM
PC-3 prostate
  GI50: 1.7 µM and 0.373 µM
  TGI: 29.4 µM and 19 µM
RPMI-8226 leukemia
  GI50: 1.19 µM and 0.333 µM
  TGI: 7.42 µM and 1.72 µM
RXF 393 renal
  GI50: 2.89 µM and 1.69 µM
  TGI: 13.4 µM and 11.5 µM
SF-268 CNS
  GI50: 3.15 µM and 0.645 µM
  TGI: 50 µM and 51.9 µM
SF-295 CNS
  GI50: 1.87 µM and 0.411 µM
  TGI: 11.8 µM and 7.71 µM
SF-539 CNS
  GI50: 2.63 µM and 1.27 µM
  TGI: 10.5 µM and 15.4 µM
SK-MEL-2 melanoma
  GI50: 1.81 µM and 0.337 µM
  TGI: 8.07 µM and 3.28 µM
SK-MEL-28 melanoma
  GI50: 3.04 µM and 1.37 µM
  TGI: 12.5 µM and 16.4 µM
SK-MEL-5 melanoma
  GI50: 1.82 µM and 0.566 µM
  TGI: 7.37 µM and 4.56 µM
SK-OV-3 ovarian
  GI50: 2.14 µM and 1.51 µM
  TGI: 35.6 µM and 17.1 µM
SN12C renal
  GI50: 1.68 µM and 0.444 µM
  TGI: 50 µM and 82.4 µM
SNB-19 CNS
  GI50: 2 µM and 0.46 µM
  TGI: 50 µM and > 100 µM
SNB-75 CNS
  GI50: 2.29 µM and 0.365 µM
  TGI: 50 µM and 16.9 µM
SR leukemia
  GI50: 0.964 µM and 1.37 µM
  TGI: 6.9 µM and 14.4 µM
SW-620 colon
  GI50: 3.37 µM and 0.801 µM
  TGI: 50 µM and > 100 µM
T-47D breast
  GI50: 1.73 µM and 0.549 µM
  TGI: 50 µM and 30.7 µM
TK-10 renal
  GI50: 3.04 µM and 1.49 µM
  TGI: 50 µM and 33.8 µM
U251 CNS
  GI50: 2.2 µM and 0.514 µM
  TGI: 50 µM and 28.8 µM
UACC-257 melanoma
  GI50: 1.45 µM and 0.449 µM
  TGI: 6.43 µM and 7.05 µM
UACC-62 melanoma
  GI50: 2.3 µM and 0.644 µM
  TGI: 12.4 µM and 14.9 µM
UO-31 renal
  GI50: 2.12 µM and 2.03 µM
  TGI: 50 µM and 65.8 µM

From PubChem BioAssay (NCI)
